Experiments:
[1] = tested on: Ralstonia solanacearum (Rs); type: cell-based; conditions: at the highest peptide concentration (32μg/ml) tested; data not shown; before the tests in minimal media
[2] = tested on: Eco DH5α; conditions: DH5α, 24 h
[3] = tested on: Xev Xvt28; conditions: 24 h
[4] = tested on: Eco DH5α; conditions: 48 h
[5] = tested on: Xev Xvt28; conditions: 48 h
[6] = tested on: Xcc Xcc17; conditions: Table 4, rich medium, up to 32 μg/ml
[7] = tested on: Xoo Xoo28; conditions: Table 4, rich medium, up to 32 μg/ml
[8] = tested on: Atu C58C1; conditions: Table 4, rich medium, up to 32 μg/ml
[9] = tested on: Pcc
[10] = tested on: Pst DC3000; conditions: Table 4, rich medium, up to 32 μg/ml
[11] = tested on: Pss B728a; conditions: Table 4, rich medium, up to 32 μg/ml
[12] = tested on: Bc; conditions: at the highest peptide concentration (32μg/ml) tested; data not shown; before the tests in minimal media
[13] = tested on: Cgl FST02; conditions: at the highest peptide concentration (32μg/ml) tested; data not shown; before the tests in minimal media
[14] = spotted on rich agar 48 h, no colony

## Ac-WKKLKKLLKKLKKLLKKL-NH2 [pepD]
[1]
  antimicrobial activity: did not have detectable antimicrobial activity
[2]
  IC50: 10 µg/mL
[3]
  IC50: 4 µg/mL
[4]
  MBC: 8 µg/mL
  MIC: 8 µg/mL
[5]
  MBC: 16 µg/mL
  MIC: 4 µg/mL
[6]; 48 h, no visible growth
  MIC: 2 µg/mL
[6]; [14]
  MBC: 8 µg/mL
[7]; 48 h, no visible growth
  MIC: 4 µg/mL
[7]; [14]
  MBC: 4 µg/mL
[8]; 48 h, no visible growth
  MIC: 4 µg/mL
[8]; [14]
  MBC: – (“–” indicates that no antimicrobial activity was detected in rich media at the highest peptide concentration (32μg/ml) that was tested in this study.)
[9]
  MBC: – (key: “–” indicates that no antimicrobial activity was detected in rich media at the highest peptide concentration (32μg/ml) that was tested in this study.)
[9]; Table 4, rich medium, 48 h, no visible growth, up to 32 μg/ml
  MIC: 32 µg/mL
[10]; 48 h, no visible growth
  MIC: 16 µg/mL
[10]; [14]
  MBC: 32 µg/mL
[11]; 48 h, no visible growth
  MIC: 32 µg/mL
[11]; [14]
  MBC: – (“–” indicates that no antimicrobial activity was detected in rich media at the highest peptide concentration (32μg/ml) that was tested in this study.)
[12]
  antimicrobial activity: did not have detectable antimicrobial activity
[13]
  antimicrobial activity: did not have detectable antimicrobial activity
